{
  "source": "patent US11440970B2",
  "about": "“Nicotine-binding antibodies” (priority 2017, dated 2022)",
  "key": {"[1]": {"conditions": "cited from earlier work"}, "[2]": {"assay": "Non-GLP 4-week repeated high-dose toxicology study", "type": "in vivo", "conditions": "nicotine 1 mg/kg/day s.c. infusion for 28d; rats", "protocol": "8D1-IgG4 was dosed i.v. once weekly at 200 mg/kg.\nAssessment of toxicity was based on mortality, clinical observations, and body weight during the course of the 28-day study, and at the end of study organ weights, gross anatomic pathology, hematology, serum clinical chemistry, and coagulation was performed. Histopathology of selected tissues (heart, liver, lung, kidney, spleen, skeletal muscle, brain, colon, stomach, ovary, and testis) is pending. Tissues were fixed immediately in formalin, and processed for embedding in paraffin, staining with H&E, and review by a veterinary pathologist."}, "[3]": {"conditions": "mice; cited from earlier work"}, "[4]": {"conditions": "rats; cited from earlier work"}},
  "note": "Where two headings read alike, the source gives them in different places.",
  "data": [
    {"smiles": "CN1CCC[C@H]1c1cccnc1", "note": "[nicotine]", "values": [
      {"measurement": "lethal dose (may be as high as)", "setting": "[1]; human adult", "value": "1.0 to 7.1", "unit": "mg/kg"},
      {"measurement": "lethal dose (may be as high as)", "setting": "[1]; in vivo", "value": "≥ 500", "unit": "mg"},
      {"measurement": "hematology finding in animals that received nicotine", "setting": "[2]", "value": "slight polychromasia"},
      {"measurement": "LD50", "setting": "[3]", "value": 3, "unit": "mg/kg"},
      {"measurement": "LD50", "setting": "[4]", "value": 50, "unit": "mg/kg"}
    ]}
  ]
}
